Source: patent publication EP3723746B1, “PHENOXY ACIDS FOR THE TREATMENT OF NEUROMUSCULAR DISORDERS” (NMD Pharma A/S, priority 2017, dated 2019)

Assays:
soleus muscles = assay: Measurement of force in an in vitro model: recovery of contractile force of isolated rat soleus nerve-muscle preparation after tubocurarine
Method: Recovery of force is quantified as the percentage of the force prior to tubocurarine that is recovered by the compound.
The current invention relates to compounds that inhibit CIC-1 ion channels and increase muscle excitability and thereby improve muscle function in clinical conditions where muscle activation is failing. Such conditions result in loss of contractile function of skeletal muscle, weakness and excessive fatigue. In this series of experiments the compounds were tested for their ability to restore contractile function of isolated rat muscle when the neuromuscular transmission had been compromised akin to neuromuscular disorders.
Experimentally, soleus muscles from 4-5 week old rats were isolated with the motor nerve remaining attached. The nerve-muscle preparations were mounted in experimental setups that enabled electrical stimulation of the motor nerve. Stimulation of the motor nerve led to activation of the muscle fibres and ensuing force production that was recorded.
After mounting the nerve-muscle preparation in the experimental setup, the contractile function of the muscle was initially assessed under the control conditions (Figure 2A). […] The experimental condition mimics the failing neuromuscular transmission in a range of neuromuscular disorders. After addition of tubocurarine the contractile force declined over the next 90 mins to 10-50 % of the control force. 50 µM of the test compound was then added and the contractile force recovered despite the continued presence of tubocurarine. To quantify the ability of the compound to restore force the percentage of the initial force that was restored was determined after 40 mins of compound exposure (Figure 2B) and the point increase is reported in Table 3. Table 3: Percentage increase of initial force that was restored

human CIC-1 channels = biological target: T1, human CIC-1 channels (Homo sapiens, UniProt P35523); assay: Automated patch-clamp on the human isoform of CIC-1 expressed in CHO cells; type: cell-based; conditions: compound added intracellularly vs control cell patches; positive shift reflects CIC-1 inhibition
T1 construct: host or cells: CHO cells constitutively expressing human ClC-1
Method: The investigatory goal of these experiments was to evaluate how compounds affect the open probability and current amplitude of human CIC-1 channels expressed in CHO cells. Experiments were performed using an automated patch clamp system that allowed high throughput testing of whole cell patches together with both intracellular and extracellular addition of compound.
Automated whole cell patch clamp experiments were performed with the Qpatch 16 system (Sophion Bioscience, Ballerup, Denmark) at room temperature. Data acquisition and analysis were performed in the Qassay software (ver. 5.6, Odense).
To evoke CIC-1 currents in whole cell patches, the membrane potential was initially stepped from a holding potential of -30 mV to +60 mV for 100 ms and then to various test voltages (sweeps) ranging from +120 mV to -140 mV in steps of 20 mV for 300 ms. To obtain tail currents, the membrane potential was stepped to -100 mV after each test voltage for 300 ms and then relaxed to -30 mV for 2 sec between sweeps (Figure 3). I/V relationships for whole cell instant and steady state current amplitudes were obtained by plotting average current densities at the beginning and at the end of the 300 ms step against the membrane potential (Figure 4).
In order to determine the relative overall open probability (P0), the instantaneous tail currents were normalized to the maximal tail current obtained following the most positive voltage step and plotted against the test voltage. Plots of normalized tail currents from each whole cell patch were then fitted to a Boltzmann function allowing determination of half activation voltages (V1/2, Figure 5).
For automated patch clamp experiments extracellular solutions contained: 2 mM CaCl2, 1 mM MgCl2, 10 mM HEPES, 4 mM KCI, 145 mM NaCl, 10 mM Glucose, pH adjusted to 7.4 with NaOH (2 M). Osmolality adjusted to ~320 using sucrose.
Intracellular solutions contained: 80 mM CsF, 60 mM CsCI, 5/1 mM KOH/EGTA, 10 mM HEPES, 10 mM NaCl, pH adjusted to 7.2 with NaOH (2 M). Osmolality adjusted to ~320 mOsm using sucrose.
Cells used in patch clamp experiments were Chinese hamster ovary cells (CHO) constitutively expressing human CIC-1 channels. The amino acid sequence encoded by the cDNA used to create this cell line was identical to the translated sequence for GenBank accession number NM_000083.2. Cells were produced by Charles River (Catalogue CT6175, Cleveland OH, USA) in a cryopreserved format. Experiments were performed on the cells directly after thawing (3 × 10^6 cells used in each experiment).
To evaluate the compound effect on CIC-1, when applied directly to the intracellular side of the cell membrane, the half activation voltage, V1/2, was determined from whole cell patches with compound added to the intracellular solution and then compared to V1/2 determined from control cell patches with only vehicle added to the intracellular solution. Additionally, the effect of extracellular added compound was evaluated by determine V1/2 and steady state current amplitudes before and after exchanging the extracellular solution to contain compound.
The difference in half activation voltage of CIC-1 channels, ΔV1/2, was determined as the difference between the cell patches treated intracellularly with compound and control cells patches and is reported in Table 4 below. A positive shift in ΔV1/2 is reflecting CIC-1 channel inhibition by the tested compound. P-values of <0.05 is considered significant. […]

Lewis rats = assay: Measurement of in situ muscle contractile characteristics (isometric hindlimb force under cisatracurium block); type: in vivo; conditions: 40 mg/kg i.v., cisatracurium infusion, 3 experiments
Method: Isometric hindlimb force was measured in 12-week old female Lewis rats in the presence and absence of compound.
Rats were placed under anesthesia with isoflurane (2-4%), intubated and subsequently connected to a micro ventilator (Microvent 1, Hallowell EMC, US). Two stimulation electrodes were inserted through the skin to stimulate the sciatic nerve. A small incision was made proximal to the ankle, to expose the Achilles tendon, which was tied by cotton string, and connected to a force transducer (Fort250, World Precision Instruments) with adjustable position (Vernier control). The Achilles tendon was then cut distal to the attached cotton string. The rat was placed on a heated pad, and to prevent movement artefacts from contraction of the ankle dorsiflexors, the foot was fixated by tape on a footplate.
Muscle contractile properties were assessed by applying an electrical current (under supramaximal voltage conditions) to the nerve and recording the force generated by the muscle. The muscle was stretched until maximal force was obtained, when assessed by 2 Hz stimulation. Isometric force was measured every 30 seconds at 12 Hz (Twitch), 10 pulses, and at every 5 minutes at 80 Hz (Tetanic) for 1 second (80 pulses). This stimulation pattern was employed throughout the experiment, expect in few cases where 80 Hz stimulation was replaced by 12 Hz (10 pulses). […] When the level of neuromuscular inhibition was stable, the test article was injected i.v. at the chosen concentration. The effect of test article was assessed on its ability to increase force generated from the stimulation pattern applied. The effect was assessed in the ability to increase force per se (tetanic, 80 Hz, stimulation), and the ratio between individual twitch peaks (12 Hz stimulation). The effect was monitored for at least 1 hour after injection of test article. In addition, the time from injection of test article to maximal effect on force (both twitch and tetanic) was noted and the time for the effect to disappear (return to baseline), if possible. When appropriate the infusion of neuromuscular blocking agent was ceased, with the stimulation pattern continued, and the return of force to control levels was monitored. Animals were sacrificed by cervical dislocation while still fully sedated.

T1 sequence (P35523 whole entry, canonical isoform): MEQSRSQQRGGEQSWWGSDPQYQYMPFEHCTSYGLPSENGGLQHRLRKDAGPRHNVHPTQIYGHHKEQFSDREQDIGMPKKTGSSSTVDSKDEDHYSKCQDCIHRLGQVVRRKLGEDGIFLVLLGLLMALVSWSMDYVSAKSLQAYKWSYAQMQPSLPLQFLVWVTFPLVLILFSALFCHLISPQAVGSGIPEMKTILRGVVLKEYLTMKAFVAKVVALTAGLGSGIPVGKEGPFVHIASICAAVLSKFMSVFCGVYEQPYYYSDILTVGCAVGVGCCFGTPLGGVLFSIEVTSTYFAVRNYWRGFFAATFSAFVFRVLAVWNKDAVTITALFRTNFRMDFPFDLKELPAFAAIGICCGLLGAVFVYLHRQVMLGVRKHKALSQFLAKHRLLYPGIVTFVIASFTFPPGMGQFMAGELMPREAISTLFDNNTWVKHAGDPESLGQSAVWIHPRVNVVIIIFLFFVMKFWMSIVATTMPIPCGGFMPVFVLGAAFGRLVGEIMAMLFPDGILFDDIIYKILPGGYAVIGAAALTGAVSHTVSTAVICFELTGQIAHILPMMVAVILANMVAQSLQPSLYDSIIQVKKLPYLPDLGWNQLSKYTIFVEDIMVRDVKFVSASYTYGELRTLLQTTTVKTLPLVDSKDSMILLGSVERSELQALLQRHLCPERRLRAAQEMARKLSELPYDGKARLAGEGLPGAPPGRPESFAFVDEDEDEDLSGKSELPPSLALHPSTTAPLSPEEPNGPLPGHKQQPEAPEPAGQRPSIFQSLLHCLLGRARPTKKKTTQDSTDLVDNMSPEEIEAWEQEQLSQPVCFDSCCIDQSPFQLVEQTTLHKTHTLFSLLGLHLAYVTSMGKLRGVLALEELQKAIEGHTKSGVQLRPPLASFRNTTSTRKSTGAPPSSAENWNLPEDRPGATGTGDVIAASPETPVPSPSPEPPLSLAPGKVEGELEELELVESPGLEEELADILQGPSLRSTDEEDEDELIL

ΔV1/2 (human CIC-1 channels): 7.7 mV
Structure (SMILES): C#Cc1cc(Br)ccc1O[C@@H](C)C(=O)O [Compound A-19, (2S)-2-(4-bromo-2-ethynylphenoxy)propanoic acid]
average force (AUC) relative to initial force (soleus muscles; Figure 2: 50 µM compound after 90 min incubation in tubocurarine, 3 muscles): recovered
activation at 50 µM (soleus muscles; Rattus norvegicus, 40 min, 50 µM test compound, after 90 mins 115 nM tubocurarine, percentage of the initial force restored after 40 mins of compound exposure, read-out: Point increase): 31%
average increase in twitch peaks (Lewis rats; 12 Hz stimulation): 9.6%
average increase in tetanic force (Lewis rats; 80 Hz stimulation): 44.5%
